From PMC5478686, “Direct Anandamide Activation of TRPV1 Produces Divergent Calcium and Current Responses” (Frontiers in Molecular Neuroscience, 2017)
One block for each compound: values may come before it.

Legend:
TRPV1 [1] = target: T1, TRPV1 (Rattus norvegicus, UniProt O35433); assay: Ratiometric Fura-2 calcium imaging in dissociated nodose ganglion (vagal afferent) neurons; format: cell-based; conditions: for effect on AEA-induced increase in cytosolic calcium: AEA 10 μM; for effect on CAP-induced increase in cytosolic calcium: CAP 100 nM
T1 construct: endogenous in cells; host or cells: dissociated nodose ganglion neurons from male Sprague Dawley rats (primary culture, used within 24 h)
Description: (§1) Nodose ganglia were isolated bilaterally from rats and mice under a deep plane of anesthesia (Ketamine, 25 mg/100 g; with Xylazine, 2.5 mg/100 g) using aseptic surgical conditions previously reported (Lancaster and Weinreich, [2001]; Simasko et al., [2002]). Following a midline incision in the neck, the musculature was retracted and blunt dissection techniques were used to dissociate the vagal trunk from the common carotid artery. High-magnification optics (10–100× dissecting scope; Leica Microsystems, Buffalo Grove, IL, USA) were utilized to visualize the nodose ganglia and facilitate complete removal. Once isolated, nodose ganglia were desheathed and digested in Ca^2+/Mg^2+ free Hank’s Balanced Salt Solution containing 1 mg/mL of both Dispase II (Hoffmann La Roche) and Collagenase Type 1A (Sigma Aldrich; 90 min at 37°C in 95% air/5% CO2). Neurons were dispersed by gentle trituration through silicanized pipettes, and then washed in Dulbecco’s Modified Eagle’s Medium (DMEM) supplemented with 10% fetal bovine serum (FBS) and 1% penicillin-streptomycin. Dispersed cells were plated onto poly-lysine coated coverslips and maintained in DMEM+10% FBS (37°C in 95% air/5% CO2). Measurements were made within 24 h of isolation.
Intracellular calcium measurements were made with the fluorescent Ca^2+ indicator Fura-2 AM (Molecular Probes, Eugene, OR, USA). Manipulations were made at room temperature in a physiological saline bath (in mM: 140 NaCl, 5 KCl, 2 CaCl2, 1 MgCl2, 6 glucose, 10 HEPES with pH adjusted to 7.4 with NaOH). High K^+ bath (HiK) had 55 mM KCl with an equimolar reduction of NaCl to 90 mM. Neurons on coverslips were loaded with 1 μM Fura-2-AM for 1 h followed by a 15 min wash for de-esterification. COS-7 cells on coverslips were loaded with 1 μM Fura-2-AM for 20 min followed by a 10 min was for de-esterification. Coverslips were mounted into a closed chamber and constantly perfused with physiological bath. Fluorescence was collected using a Nikon Eclipse Ti inverted microscope (Nikon Instruments Inc., Melville, NY, USA) with 40× oil immersion objective, and an Andor Zyla sCMOS digital camera (Andor, South Windsor, CT, USA). For COS-7 cell experiments, TRPV1-GFP+ cells were identified by imaging using an EGFP filter cube (Nikon) prior to Fura-2 imaging. Cells containing Fura-2 were alternatively excited with 340 nm and 380 nm light and fluorescence monitored at 510 nm. Data points were collected with MetaFluor software at 6 s time points. Ratios of fluorescence intensity were converted to Ca^2+ concentrations with a standard curve. Peak calcium responses were quantified, analyzed and compared statistically.
For each experiment, data were collected from three to four nodose ganglion cell cultures or plating of the clonal cells (COS-7). When possible, protocols were designed to be within subject and analyzed using repeated measures ANOVA followed by post hoc comparisons against control. Otherwise unpaired T-tests were used to compare between groups. Parameters of dose-response relationships (EC50, slope, maximum) were determined by sigmoid fit of the data. For antagonist studies (ruthenium red (RR), etc.) all neurons received each treatment and were compared using within subject t-tests. Data are expressed as the average ± SEM. Statistical analysis was performed using SigmaStat software (Systat Software Inc., San Jose, CA, USA).

[2] = system: T2, recombinant rat TRPV1 (TRPV1-GFP); assay: Whole-cell patch-clamp in HEK293 cells transfected with TRPV1-GFP; format: cell-based; conditions: for current reversal potential: current-voltage plots, n = 9 cells
T2 construct: expressed in transfected cells; host or cells: HEK293 cells (ATCC), transient transfection with lipofectamine 2000
Description: (§2) To generate TRPV1-GFP, the full-length rat TRPV1 coding region (NCBI accession number NM_031982.1) without stop codon was PCR amplified from nodose ganglion cDNA using the primers below and inserted into the HindIII and EcoRI sites of pEGFP-N1 (Clontech).
Clonal COS-7 cells (ATCC® Manassas, VA, USA) were plated on glass coverslips at a density of 250,000 cells per well of a 6-well tissue culture plate. HEK293 cells (ATCC® Manassas, VA, USA) were plated on glass coverslips at a density of 50,000 cells per well of a 12-well plate. COS-7 and HEK293 cells were maintained in DMEM (Invitrogen), 10% FCS (Atlanta Biologicals), 25 units/ml penicillin and 25 μg/ml streptomycin (Sigma). Approximately 24 h after plating, media was replaced with DMEM, 10% FCS without pen/strep and cells were transiently transfected overnight. COS-7 cells were transfected with 2 μg of TRPV1-GFP and 2.4 μl lipofectamine 2000 (Invitrogen) per well. HEK293 cells were transfected with 1 μg of TRPV1-GFP and 1.2 μl lipofectamine 2000 per well. COS-7 cells were used for calcium imaging and HEK293 cells were used for electrophysiological recordings 1–2 days following transfection.
Whole cell recordings were performed on dissociated nodose ganglion neurons or transfected HEK293 cells using an inverted Olympus IX50 microscope and on NTS neurons contained in horizontal brainstem slices using an upright Nikon FN1 microscope. For HEK293 cell experiments, TRPV1-GFP+ cells were identified visually using 488 nm light illuminations prior to patching. […]
Whole cell currents taken from isolated nodose ganglion cells or transfected HEK 293 cells were normalized to the membrane capacitance to control for variability in cell size. […] For brainstem slice recordings the digitized waveforms of synaptic events were analyzed using an event detection and analysis program (MiniAnalysis, Synaptosoft, Decatur, GA, USA) for all quantal synaptic currents and Clampfit 10 (Molecular Devices) for all ST-stimulated currents. All events >10 pA were counted for frequency values. […]

TRPV1 [3] = target: T1, TRPV1; assay: Whole-cell patch-clamp current recordings in dissociated nodose ganglion neurons; format: cell-based
Description: as §1
Liquid junction potentials were not corrected.

second-order NTS neurons = assay: Spontaneous glutamate release (sEPSCs) onto second-order NTS neurons in horizontal brainstem slices; format: cell-based, rat
[4] = system: recombinant rat TRPV1 (TRPV1-GFP); assay: Fura-2 calcium imaging in COS-7 cells transfected with TRPV1-GFP; format: cell-based; conditions: COS-7 TRPV1-GFP; AEA n = 453 cells, CAP n = 492 cells
Description: as §2
Clonal COS-7 cells (ATCC® Manassas, VA, USA) were plated on glass coverslips at a density of 250,000 cells per well of a 6-well tissue culture plate. HEK293 cells (ATCC® Manassas, VA, USA) were plated on glass coverslips at a density of 50,000 cells per well of a 12-well plate. COS-7 and HEK293 cells were maintained in DMEM (Invitrogen), 10% FCS (Atlanta Biologicals), 25 units/ml penicillin and 25 μg/ml streptomycin (Sigma). […]
(§3) Intracellular calcium measurements were made with the fluorescent Ca^2+ indicator Fura-2 AM (Molecular Probes, Eugene, OR, USA). […] Fluorescence was collected using a Nikon Eclipse Ti inverted microscope (Nikon Instruments Inc., Melville, NY, USA) with 40× oil immersion objective, and an Andor Zyla sCMOS digital camera (Andor, South Windsor, CT, USA). […] Cells containing Fura-2 were alternatively excited with 340 nm and 380 nm light and fluorescence monitored at 510 nm. […] Ratios of fluorescence intensity were converted to Ca^2+ concentrations with a standard curve. Peak calcium responses were quantified, analyzed and compared statistically.

[5] = system: vagal afferent neurons taken from TRPV1 KO mice; assay: Fura-2 calcium imaging in vagal afferent neurons from TRPV1 KO mice; format: cell-based, mouse; conditions: any concentration tested, n = 15
Description: Male Sprague Dawley rats (120–250 g, Simonsen Laboratories) and male TRPV1 knockout mice (TRPV−/−) (20–30 g) (B6.129X1-Trpv1^tm1Jul/J, Jackson Laboratories) were used under procedures approved by the IACUC at Washington State University. Animals were housed under 12 h light/12 h dark conditions and fed standard pellet chow ad libitum. This study was carried out in accordance with the recommendations of the Guide for the Care and Use of Laboratory Animals, as drafted, updated and published by National Research Council. […]
as §3

[6] = CAP 1 μM bath application, n = 13

T1 sequence (O35433 whole entry): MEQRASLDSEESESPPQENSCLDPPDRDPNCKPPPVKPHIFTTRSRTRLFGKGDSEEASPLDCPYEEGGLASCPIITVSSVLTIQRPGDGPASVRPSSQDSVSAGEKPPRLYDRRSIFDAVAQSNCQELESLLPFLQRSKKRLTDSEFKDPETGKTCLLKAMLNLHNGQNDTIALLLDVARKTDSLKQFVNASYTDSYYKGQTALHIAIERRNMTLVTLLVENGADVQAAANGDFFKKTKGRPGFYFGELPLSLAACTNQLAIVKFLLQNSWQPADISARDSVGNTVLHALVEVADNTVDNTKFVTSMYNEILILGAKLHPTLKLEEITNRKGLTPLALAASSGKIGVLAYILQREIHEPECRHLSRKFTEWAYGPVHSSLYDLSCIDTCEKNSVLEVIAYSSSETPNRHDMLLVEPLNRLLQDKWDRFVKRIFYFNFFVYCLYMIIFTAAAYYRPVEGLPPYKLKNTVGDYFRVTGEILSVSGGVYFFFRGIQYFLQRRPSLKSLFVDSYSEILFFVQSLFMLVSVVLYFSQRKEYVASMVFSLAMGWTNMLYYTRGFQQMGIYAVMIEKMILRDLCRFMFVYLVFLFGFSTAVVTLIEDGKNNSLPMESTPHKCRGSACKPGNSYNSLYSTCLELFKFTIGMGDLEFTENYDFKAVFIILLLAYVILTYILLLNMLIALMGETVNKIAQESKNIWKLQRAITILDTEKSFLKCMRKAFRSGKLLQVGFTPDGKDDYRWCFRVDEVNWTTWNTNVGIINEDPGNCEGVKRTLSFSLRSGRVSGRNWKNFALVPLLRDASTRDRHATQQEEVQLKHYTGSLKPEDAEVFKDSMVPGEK

SMILES: CCCCC/C=C\C/C=C\C/C=C\C/C=C\CCCC(=O)NCCO [AEA, anandamide]
EC50 (TRPV1 [1]; cultured vagal afferent neurons, Fura-2, sigmoid fit, AM251 present for AEA, read-out: EC50 for Calcium (peak cytosolic calcium)): 1.95 ± 0.36 µM | calcium response to 1st AEA exposure (time matched control) (TRPV1 [1]; repeated AEA, 1st response, N = 12): 113 ± 26 | calcium response to 2nd AEA exposure (time matched control) (TRPV1 [1]; repeated AEA, 2nd response, N = 12, P = 0.002 vs 1st): 43 ± 13 | current reversal potential [2]: 5 mV | current change, smaller than CAP ([2]; physiological bath, Vm = −60 mV): ~ 52% | EC50 (TRPV1 [3]): 9.8 ± 1.07 µM | effect of addition of extracellular bath calcium on initial inward current (TRPV1 [3]; AEA applied in calcium free bath, then calcium containing bath, n = 8): significantly reduced | inward current following removal of bath calcium vs standard bath (TRPV1 [3]; saturating AEA 30 μM, bath calcium 2 mM vs calcium free, n = 6): significantly larger | change of any sEPSC parameter (frequency, amplitude, decay-time constant) (second-order NTS neurons; AEA 30 μM, n = 16): failed to produce a significant change | peak calcium response, smaller compared to CAP [4]: ~ 14% | cytosolic calcium increase in TRPV1 KO neurons [5]: failed to produce a calcium increase

effect of removal of bath calcium on average amplitude of induced current (TRPV1 [3]; saturating CAP 10 μM, bath calcium 2 mM vs calcium free, n = 8): did not change
SMILES: COc1cc(CNC(=O)CCCC/C=C/C(C)C)ccc1O [CAP, capsaicin]
current reversal potential [2]: 5 mV | change of sEPSC event amplitude or decay kinetics (second-order NTS neurons; [6]): no significant changes | change of spontaneous glutamate release (sEPSC frequency) (second-order NTS neurons; [6]): dramatic increase

SMILES: N.N.N.N.N.N.N.N.N.N.N.N.N.N.[Cl-].[Cl-].[Cl-].[Cl-].[Cl-].[Cl-].[O-2].[O-2].[Ru+3].[Ru+3].[Ru+4] [RR, ruthenium red]
effect on AEA-induced increase in cytosolic calcium (TRPV1 [1]; RR 1 μM pretreatment): eliminated | effect on CAP-induced increase in cytosolic calcium (TRPV1 [1]; RR 1 μM pretreatment): eliminated

SMILES: COc1cccc(NC(=O)/C=C/c2ccc(Cl)cc2)c1 [SB366791]
effect on AEA-induced increase in cytosolic calcium (TRPV1 [1]; SB366791 10 μM pretreatment): eliminated | effect on CAP-induced increase in cytosolic calcium (TRPV1 [1]; SB366791 10 μM pretreatment): eliminated
